Measured values reported in PubChem BioAssay AID1963966 (Molecular Pharmacology Branch, DTP, NCI, 2024).

Tested on: 935938-334-R-J1-PDC spheroids with HUVEC/MSC, viability
Test: Anticancer human tumor 935938-334-R-J1-PDC patient-derived small intestine adenocarcinoma cell line growth inhibition [PI3K]
Settings: for IC50: curve of first compound; for viability, T/C: stronger effect = lower value
In short: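 Tumor cells were combined with HUVEC and MSCs into spheroids, then dosed with PI3K-inhibitor combinations over half-log ranges capped near clinical Cmax or 10 microM.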

[1] = second compound 0.0316 µM, first compound 0.000316 µM
[2] = second compound 0.0316 µM, first compound 0.001 µM
[3] = second compound 0.0316 µM, first compound 0.00316 µM
[4] = second compound 0.0316 µM, first compound 0.01 µM
[5] = second compound 0.0316 µM, first compound 0.0316 µM
[6] = second compound 0.0316 µM, first compound 0.1 µM
[7] = second compound 0.1 µM, first compound 0.000316 µM
[8] = second compound 0.1 µM, first compound 0.001 µM
[9] = second compound 0.1 µM, first compound 0.00316 µM
[10] = second compound 0.1 µM, first compound 0.01 µM
[11] = second compound 0.1 µM, first compound 0.0316 µM
[12] = second compound 0.1 µM, first compound 0.1 µM
[13] = second compound 0.316 µM, first compound 0.000316 µM
[14] = second compound 0.316 µM, first compound 0.001 µM
[15] = second compound 0.316 µM, first compound 0.00316 µM
[16] = second compound 0.316 µM, first compound 0.01 µM
[17] = second compound 0.316 µM, first compound 0.0316 µM
[18] = second compound 0.316 µM, first compound 0.1 µM
[19] = second compound 1 µM, first compound 0.000316 µM
[20] = second compound 1 µM, first compound 0.001 µM
[21] = second compound 1 µM, first compound 0.00316 µM
[22] = second compound 1 µM, first compound 0.01 µM
[23] = second compound 1 µM, first compound 0.0316 µM
[24] = second compound 1 µM, first compound 0.1 µM
[25] = second compound 3.16 µM, first compound 0.000316 µM
[26] = second compound 3.16 µM, first compound 0.001 µM
[27] = second compound 3.16 µM, first compound 0.00316 µM
[28] = second compound 3.16 µM, first compound 0.01 µM
[29] = second compound 3.16 µM, first compound 0.0316 µM
[30] = second compound 3.16 µM, first compound 0.1 µM
[31] = second compound 10 µM, first compound 0.000316 µM
[32] = second compound 10 µM, first compound 0.001 µM
[33] = second compound 10 µM, first compound 0.00316 µM
[34] = second compound 10 µM, first compound 0.01 µM
[35] = second compound 10 µM, first compound 0.0316 µM
[36] = second compound 10 µM, first compound 0.1 µM
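Further: compound exposure lasted seven days before viability was read.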
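Wherever viability, T/C is given: percent of vehicle DMSO treated spheroid viability so 100% = untreated.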

## CC(=O)c1c(C)c2cnc(Nc3ccc(N4CCNCC4)cn3)nc2n(C2CCCC2)c1=O + CC(Nc1ncnc2nc[nH]c12)c1cc2cccc(Cl)c2c(=O)n1-c1ccccc1
Second compound 0.0316 µM
  IC50: > 100 nM
Second compound 0.1 µM
  IC50: > 100 nM
Second compound 0.316 µM
  IC50: > 100 nM
Second compound 1 µM
  IC50: > 100 nM
Second compound 3.16 µM
  IC50: 79.4 nM
Second compound 10 µM
  IC50: 49 nM
[1]
  viability, T/C: 105%
[2]
  viability, T/C: 108%
[3]
  viability, T/C: 99%
[4]
  viability, T/C: 97.2%
[5]
  viability, T/C: 90%
[6]
  viability, T/C: 73%
[7]
  viability, T/C: 103%
[8]
  viability, T/C: 103%
[9]
  viability, T/C: 93%
[10]
  viability, T/C: 69.5%
[11]
  viability, T/C: 91.5%
[12]
  viability, T/C: 74.6%
[13]
  viability, T/C: 68.6%
[14]
  viability, T/C: 91.2%
[15]
  viability, T/C: 105%
[16]
  viability, T/C: 89.7%
[17]
  viability, T/C: 71.6%
[18]
  viability, T/C: 64.9%
[19]
  viability, T/C: 99.8%
[20]
  viability, T/C: 109%
[21]
  viability, T/C: 93%
[22]
  viability, T/C: 88.5%
[23]
  viability, T/C: 69.5%
[24]
  viability, T/C: 53.4%
[25]
  viability, T/C: 96.7%
[26]
  viability, T/C: 111%
[27]
  viability, T/C: 97.6%
[28]
  viability, T/C: 86.3%
[29]
  viability, T/C: 73.5%
[30]
  viability, T/C: 44.1%
[31]
  viability, T/C: 87.1%
[32]
  viability, T/C: 83.7%
[33]
  viability, T/C: 78.4%
[34]
  viability, T/C: 67.1%
[35]
  viability, T/C: 56.7%
[36]
  viability, T/C: 40.2%

## CC(C)n1nc(-c2ccc3oc(N)nc3c2)c2c(N)ncnc21 + CC(Nc1ncnc2nc[nH]c12)c1cc2cccc(Cl)c2c(=O)n1-c1ccccc1
Second compound 0.0316 µM
  IC50: > 100 nM
Second compound 0.1 µM
  IC50: > 100 nM
Second compound 0.316 µM
  IC50: > 100 nM
Second compound 1 µM
  IC50: > 100 nM
Second compound 3.16 µM
  IC50: > 100 nM
Second compound 10 µM
  IC50: 71.6 nM
[1]
  viability, T/C: 120%
[2]
  viability, T/C: 104%
[3]
  viability, T/C: 99.8%
[4]
  viability, T/C: 99.1%
[5]
  viability, T/C: 78.6%
[6]
  viability, T/C: 62.9%
[7]
  viability, T/C: 97.3%
[8]
  viability, T/C: 85.9%
[9]
  viability, T/C: 84.5%
[10]
  viability, T/C: 91.3%
[11]
  viability, T/C: 88.3%
[12]
  viability, T/C: 62%
[13]
  viability, T/C: 78.2%
[14]
  viability, T/C: 85.6%
[15]
  viability, T/C: 83.2%
[16]
  viability, T/C: 96.2%
[17]
  viability, T/C: 72.1%
[18]
  viability, T/C: 57.9%
[19]
  viability, T/C: 111%
[20]
  viability, T/C: 91.7%
[21]
  viability, T/C: 81.5%
[22]
  viability, T/C: 84%
[23]
  viability, T/C: 82.4%
[24]
  viability, T/C: 47.6%
[25]
  viability, T/C: 87.5%
[26]
  viability, T/C: 74%
[27]
  viability, T/C: 76.7%
[28]
  viability, T/C: 70.4%
[29]
  viability, T/C: 57.6%
[30]
  viability, T/C: 51.2%
[31]
  viability, T/C: 72.7%
[32]
  viability, T/C: 94.1%
[33]
  viability, T/C: 61.5%
[34]
  viability, T/C: 71.5%
[35]
  viability, T/C: 68.5%
[36]
  viability, T/C: 43%

## CCCS(=O)(=O)Nc1ccc(F)c(C(=O)c2c[nH]c3ncc(-c4ccc(Cl)cc4)cc23)c1F + CC(Nc1ncnc2nc[nH]c12)c1cc2cccc(Cl)c2c(=O)n1-c1ccccc1
Second compound 0.0316 µM
  IC50: 6710 nM
Second compound 0.1 µM
  IC50: 6810 nM
Second compound 0.316 µM
  IC50: 6860 nM
Second compound 1 µM
  IC50: 6770 nM
Second compound 3.16 µM
  IC50: 6380 nM
Second compound 10 µM
  IC50: 5620 nM
[5]
  viability, T/C: 107%
[6]
  viability, T/C: 100%
Second compound 0.0316 µM, first compound 0.316 µM
  viability, T/C: 140%
Second compound 0.0316 µM, first compound 1 µM
  viability, T/C: 102%
Second compound 0.0316 µM, first compound 3.16 µM
  viability, T/C: 95.2%
Second compound 0.0316 µM, first compound 10 µM
  viability, T/C: 26.3%
[11]
  viability, T/C: 88.2%
[12]
  viability, T/C: 98.7%
Second compound 0.1 µM, first compound 0.316 µM
  viability, T/C: 95.9%
Second compound 0.1 µM, first compound 1 µM
  viability, T/C: 94%
Second compound 0.1 µM, first compound 3.16 µM
  viability, T/C: 108%
Second compound 0.1 µM, first compound 10 µM
  viability, T/C: 26.5%
[17]
  viability, T/C: 99.8%
[18]
  viability, T/C: 94%
Second compound 0.316 µM, first compound 0.316 µM
  viability, T/C: 111%
Second compound 0.316 µM, first compound 1 µM
  viability, T/C: 110%
Second compound 0.316 µM, first compound 3.16 µM
  viability, T/C: 96.3%
Second compound 0.316 µM, first compound 10 µM
  viability, T/C: 27%
[23]
  viability, T/C: 97%
[24]
  viability, T/C: 105%
Second compound 1 µM, first compound 0.316 µM
  viability, T/C: 109%
Second compound 1 µM, first compound 1 µM
  viability, T/C: 118%
Second compound 1 µM, first compound 3.16 µM
  viability, T/C: 91.6%
Second compound 1 µM, first compound 10 µM
  viability, T/C: 28.5%
[29]
  viability, T/C: 109%
[30]
  viability, T/C: 91.6%
Second compound 3.16 µM, first compound 0.316 µM
  viability, T/C: 99.9%
Second compound 3.16 µM, first compound 1 µM
  viability, T/C: 117%
Second compound 3.16 µM, first compound 3.16 µM
  viability, T/C: 84.3%
Second compound 3.16 µM, first compound 10 µM
  viability, T/C: 28%
[35]
  viability, T/C: 91.2%
[36]
  viability, T/C: 86.5%
Second compound 10 µM, first compound 0.316 µM
  viability, T/C: 91.6%
Second compound 10 µM, first compound 1 µM
  viability, T/C: 97%
Second compound 10 µM, first compound 3.16 µM
  viability, T/C: 78.1%
Second compound 10 µM, first compound 10 µM
  viability, T/C: 21.9%
